In patent publication US4324894A, “Aminoisoquinoline derivatives” (Egyt Gyogyszervegyeszeti Gyar, priority 1979, dated 1982):

Legend:
Type in all cases: in vivo
[1] = Acute toxicity on mice, oral; details: mouse, in vivo, po, mice weighing 18 to 22 g, orally
Protocol: (§1) The acute toxicity of the aminoisoquinoline derivatives of the formula (I) were determined on mice weighing 18 to 22 g. The compounds were administered orally. The LD50 values are summarized in Table I. Toxicity data for meprobamate [2-methyl-2-propylpropane-1,3-dioldicarbamate] and phenylbutazon [4-butyl-1,2-diphenylpyrazolidine-3,5-dione] used as reference substances in the pharmacological tests are also given in Table I.

[2] = tested on: narcosis developed with hexobarbital; assay: Potentiation of the narcosis developed with hexobarbital; details: mice; for ED50: Mus musculus, po; for Therapeutic index: p.o., corresponds to LD50/ED50
Protocol: The narcosis potentiating effects of the novel compounds having the formula (I) were studied by the method of Kaergaard and al., Arch. Int. […] The compounds studied were administered orally to groups of mice consisting of 6 animals each. To the control group, 20 ml/kg of 0.9 percent sodium chloride solution was orally administered. Then, the animals were treated with an intravenous dosage of 40 mg/kg of hexobarbital/5-(1-cyclohexenyl)-1,5-dimethylbarbituric acid/. According to our evaluation method, a 150 percent prolongation of sleeping period in relation to the control group was regarded as a positive response.
The number of animals with positive responses was related to the total number of animals treated.

[3] = tested on: mice; assay: Acute toxicity on mice, oral; details: mice weighing 18 to 22 g, orally
Protocol: as §1

[4] = orally, hexobarbital 40 mg/kg intravenous, positive response = 150 percent prolongation of sleeping period in relation to control

Nc1cc2ccccc2c(N2CCOCC2)n1 [Example 4, 1-morpholinyl-3-aminoisoquinoline]
LD50 [1]: > 2000 mg/kg

Cc1c(N)nc(N2CCN(c3ccccn3)CC2)c2ccccc12 [Example 2, 1-/4'-(2"-pyridyl)-1'-piperazinyl/-3-amino-4-methylisoquinoline]
LD50 [1]: 2000 mg/kg
ED50 [2, 4]: 74 mg/kg
Therapeutic index [2]: 27

Cc1c(N)nc(N2CCOCC2)c2ccccc12 [Example 1, 1-morpholinyl-3-amino-4-methylisoquinoline]
LD50 [1]: 2000 mg/kg
ED50 [2, 4]: 100 mg/kg
Therapeutic index [2]: 20

Nc1cc2ccccc2c(N2CCN(c3ccccn3)CC2)n1 [Example 6, 1-/4'-(2"-pyridyl)-piperazin-1'-yl/-3-aminoisoquinoline]
LD50 [1]: 2000 mg/kg
ED50 [2, 4]: 140 mg/kg
Therapeutic index [2]: 14.3

CCCC(C)(COC(N)=O)COC(N)=O [Meprobamate, 2-methyl-2-propylpropane-1,3-dioldicarbamate, reference compound]
ED50 [2, 4]: 260 mg/kg
Therapeutic index [2]: 4.2

Cc1c(N)nc(N2CCN(c3ccccn3)CC2)c2ccccc12 [Example 3, 1-/4'-(2"-pyridyl)-1'-piperazinyl/-3-amino-4-methylisoquinoline bis/ethanesulfonate/]
LD50 p.o. [3]: 2000 mg/kg
ED50 p.o. [2, 4]: 140 mg/kg
Therapeutic index [2]: 14.3

Nc1cc2ccccc2c(N2CCOCC2)n1 [Example 5, 1-morpholinyl-3-aminoisoquinoline ethanesulfonate]
LD50 p.o. [3]: 2000 mg/kg
